Experimental data from patent EP0314302A2, “Herbicidal o-carbomethoxy-sulfonylureas” (E.I. DU PONT DE NEMOURS AND COMPANY, priority 1987, dated 1989).

How the values were obtained:
Goldenrod = test: Test 4 plantation crop weeds, postemergence; format: in vivo, Solidago spp; details: Table 6, profusely branching, scale 0-100
Description: (§1) The object of this test was to evaluate the efficacy of the compound of this invention on weeds that infest some plantation crops at different growth stages of the weeds. Asystasia intrusa, Mikania cordata, goldenrod Solidago spp, Boston fern Nephrolepis exalata, and lalang Imparata cylindrica were planted in 15-cm plastic pots. Plants were sprayed postemergence with Compound I in a non-phytotoxic solvent. The Asystasia plants ranged in growth from 4 leaves to 9 leaves and very branched, Mikania had 6 leaves to vining, the goldenrod was branching and the Boston fern was growing vigorously. The degree of weed control was visually rated 20 to 24 days after treatment (DAT). Control ratings are based on the scale of 0 to 100 where 0 = no effect, 20 = minimal control and 100 = complete control. Variations in the results of the tests could be due to the fact that the tests were run at different times of the year or due to the stage of growth of the weeds.

Lalang = test: Test 4 plantation crop weeds, postemergence; format: in vivo, Imparata cylindrica; details: Table 8, scale 0-100
Description: as §1

Ball mustard = test: Test 7 postemergence; format: in vivo, Neslia paniculata; details: scale 0-100
Procedure: (§2) Individual 11.4-cm plastic pots filled with planting medium were seeded with rape, wild radish (Raphanus raphanistruna). tansy mustard (Descurainia pinnata), ball mustard (Neslia paniculata), black mustard (Brassica nigra), yellow mustard, brown mustard, lentils, safflower, flax, sunflower, peanut, vetch, alfalfa, field bean, pea, violet (Viola spp), Kochia (Kochia spp), Russian thistle (Salsola spp), Matricaria spp, groundsel (Senecio spp), shepherdspurse (Capsella bursa-pastoris), nightshade (Solanum spp), sowthistle (Sonchus spp), sugar beet, wheat, "Bonanza" barley and "Morex" barley, Kentucky bluegrass (Poa pratensis), red clover (Trifolium pratense), dandelion (Taraxacum spp) and buckhorn plantain (Plantago lanceolata).
(§3) Plants were treated postemergence with the compound formulated with a non-phytotoxic carrier. Plants were visually rated 18 days after treatment (DAT). Response ratings were based on the scale of 0 to 100 where 0 = no effect, 20 = minimal injury and 100 = complete control.

Russian thistle = test: Test 7 postemergence; format: in vivo, Salsola spp; details: scale 0-100
Procedure: as §2, §3

Kentucky bluegrass = test: Test 7 postemergence; format: in vivo, Poa pratensis; details: scale 0-100
Procedure: as §2, §3

Bentgrass = test: Test 8 postemergence safety to pineapple, turfs and weed control; format: in vivo; details: scale 0-100
Description: The object of this test was to evaluate the compound of this invention for postemergence safety to pineapple, turfs and weed control. Climax timothy, Kentucky bluegrass, forage fescue, Kentucky fescue, bermudagrass, bentgrass, annual bluegrass, bahiagrass, purple nutsedge, yellow nutsedge, large crabgrass, perennial ryegrass, annual ryegrass, galium and pineapple were sprayed postemergence with the compound in a non-phytotoxic solvent. Plants were visually rated 36 days after treatment (DAT). Injury ratings were based on the scale of 0 to 100 where 0 = no effect, 20 = minimal effect and 100 = complete control.

Mikanis cordata = test: Test 9 postemergence; format: in vivo, Mikania cordata; details: scale 0-100
Procedure: (§4) Plastic windowsill pots containing planting medium were seeded with bahiagrass, bindweed (Convolvulus spp), guinea grass (Panicum maximum), large crabgrass (Digitaria sanguinalis) and pigweed (Amaranthus spp). Individual 15-cm plastic pots contained sandbur (Cenchrus echinatus), Mikania cordata, Boston fern (Nephrolepis exalata), quackgrass (Agropyron repens), elephantgrass (Pennisetum purpureum) and sowthistle (Sonchus spp) plants.
(§5) Plants were treated postemergence with Compound I formulated in a non-phytotoxic solvent. Plants were visually rated 22 days after treatment (DAT). Injury and weed control ratings were based on the scale of 0 to 100 where 0 = no effect, 20 = minimal control and 100 = complete control.

Sowthistle = test: Test 9 postemergence; format: in vivo, Sonchus spp; details: scale 0-100
Procedure: as §4, §5

Era wheat = test: Test 10 postemergence safety to crops and weed control; format: in vivo; details: 16 g/ha, scale 0-100
Procedure: (§6) The object of these tests was to evaluate the compound of this invention for postemergence safety to crops and weed control. Seedling and budded Macedine grapes were grown in 11.4-cm pots. Flax, green foxtail (Setaria viridis), "Morex" barley, wild oats (Avena fatua), "Era" wheat, annual ryegrass (Lolium multiflorum), wild radish (Raphanus raphanistrum), rape, sunflower, chickweed (Stellaria media) and wild buckwheat (Polygonum convolvulus) were seeded in windowsill pots.
(§7) The plants were sprayed postemergence with Compound I in a non-phytotoxic solvent. Plants were visually rated 15 and 27 days after treatment (DAT). Injury and weed control ratings were based on the scale of 0 to 100 where 0 = no effect, 20 minimal control and 100 = complete control.

Rape = test: as above; format: in vivo; details: 16 g/ha, scale 0-100
Procedure: as §6, §7

Chickweed = test: as above; format: in vivo, Stellaria media; details: 16 g/ha, scale 0-100
Procedure: as §6, §7

Yellow nutsedge [1] = test: Test 11 citrus pots, preemergence to the weeds; format: in vivo, Cyperus esculentus; details: Preemergence 32 g/ha; 0.25% X-77 surfactant; scale 0-100
Procedure: (§8) Budded citrus seedlings were planted in 30-liter plastic pots which were also seeded with sandbur, guineagrass, narrowleaf panicum, common ragweed, yellow nutsedge, purple nutsedge and bindweed. Compound I was applied preemergence and postemergence to the weeds. Treatments were sprayed to simulate the trunk-to-trunk herbicide application method used in some citrus groves. The compound was also applied postemergence to weeds grown in windowsill flats. The flats were filled with planting medium and seeded with morningglory (Ipomoea spp.). purple nutsedge (Cyperus rotundus), pigweed (Amaranthus spp.), bindweed (Convolvulus spp.), narrowleaf panicum (Panicum maximum), common ragweed (Ambrosia artemisiifolia), sandbur (Cenchrus echinatus), itchgrass (Rottboellia exaltata), johnsongrass (Sorghum halepense), guineagrass (Panicum maximum), smooth crabgrass (Digitaria ischaemum), broadleaf signalgrass (Brachiaria platyphylla), bermudagrass (Cynodon dactylon), goosegrass (Eleusine indica), large crabgrass (Digitaria sanguinalis) and yellow nutsedge (Cyperus esculentus).
(§9) The compound was formulated and sprayed with 0.25% X-77 surfactant in water. Plants were visually rated 21 and 29 days after treatment and compared with appropriate controls. Injury ratings were based on the scale of 0 to 100, where 0 indicates no effect, 20 indicates minimum effect and 100 indicates complete control. […]

Citrus = test: Test 11 citrus pots, postemergence to the weeds; format: in vivo; details: Postemergence 32 g/ha, 0.25% X-77 surfactant, scale 0-100
Procedure: as §8, §9

Bindweed = test: Test 11 windowsill flats, postemergence; format: in vivo, Convolvulus spp.; details: Postemergence 32 g/ha, 0.25% X-77 surfactant, scale 0-100
Procedure: as §8, §9

Large Crabgrass = test: Test 11 windowsill flats, postemergence; format: in vivo, Digitaria sanguinalis; details: Postemergence 32 g/ha, 0.25% X-77 surfactant, scale 0-100
Procedure: as §8, §9

Yellow nutsedge [2] = test: Test 11 windowsill flats, postemergence; format: in vivo, Cyperus esculentus; details: Postemergence 32 g/ha, 0.25% X-77 surfactant, scale 0-100
Procedure: as §8, §9

## COC(=O)c1cccnc1S(=O)(=O)NC(=O)Nc1nc(OC)cc(OC)n1 [Compound I, 2-[[(4,6-dimethoxypyrimidin-2-yl)aminocarbonyl]aminosulfonyl]-3-pyridinecarboxylic acid, methyl ester]
Goldenrod; 16 g/ha
  Control Rating 20 DAT: 30
Goldenrod; 32 g/ha
  Control Rating 20 DAT: 30
Lalang; 16 g/ha
  Control Rating 22 DAT: 20
Lalang; 32 g/ha
  Control Rating 22 DAT: 20
Lalang; 64 g/ha
  Control Rating 22 DAT: 40
Ball mustard; 16 g/ha
  Plant Injury Rating 18 DAT: 100
Ball mustard; 32 g/ha
  Plant Injury Rating 18 DAT: 100
Russian thistle; 16 g/ha
  Plant Injury Rating 18 DAT: 100
Russian thistle; 32 g/ha
  Plant Injury Rating 18 DAT: 100
Kentucky bluegrass; 16 g/ha
  Plant Injury Rating 18 DAT: 100
Kentucky bluegrass; 32 g/ha
  Plant Injury Rating 18 DAT: 100
Bentgrass; 16 g/ha
  Plant Injury Rating 36 DAT: 70
Bentgrass; 32 g/ha
  Plant Injury Rating 36 DAT: 100
Mikanis cordata; 8 g/ha
  Plant Injury Rating 22 DAT: 0
Mikanis cordata; 16 g/ha
  Plant Injury Rating 22 DAT: 0
Mikanis cordata; 32 g/ha
  Plant Injury Rating 22 DAT: 30
Sowthistle; 8 g/ha
  Plant Injury Rating 22 DAT: 60
Sowthistle; 16 g/ha
  Plant Injury Rating 22 DAT: 70
Sowthistle; 32 g/ha
  Plant Injury Rating 22 DAT: 100
Era wheat
  Plant Injury Rating 15 DAT: 100
Rape
  Plant Injury Rating 15 DAT: 100
Chickweed
  Plant Injury Rating 15 DAT: 100
Yellow nutsedge [1]
  Injury ratings: 100
Citrus
  Injury ratings: 0
Bindweed
  Injury ratings: 100
Large Crabgrass
  Injury ratings: 80
Yellow nutsedge [2]
  Injury ratings: 80
